Laboratory results taken from ChEMBL document CHEMBL5370660, “Design of a Supersoft Topical JAK Inhibitor, Which Is Effective in Human Skin but Rapidly Deactivated in Blood” (J Med Chem, 2023).
Converted amounts (≈) assume the structure as drawn.

Legend:
[1] = molecular target: Tyrosine-protein kinase JAK1 (Homo sapiens, UniProt P23458); experiment: Inhibition of GST-fused JAK1 (866 to 1154 residues)(unknown origin) using FITC-Ahr-KKSRGDYMTMQIG-NH2 peptide as substrate incubated for 30 mins in presence of ATP by caliper microfluidic mobility shift assay
[2] = molecular target: Tyrosine-protein kinase JAK2 (Homo sapiens, UniProt O60674); experiment: Inhibition of GST-fused JAK2 (808 to 1132 residues)(unknown origin) using Carboxyfluorescein-Ahx-GGEEEEYFELVKKKK peptide as substrate incubated for 30 mins in presence of ATP by caliper microfluidic mobility shift assay
[3] = molecular target: T1, Tyrosine-protein kinase JAK3 (Homo sapiens, UniProt P52333); experiment: Inhibition of GST-fused JAK3 (811 to 1124 residues)(unknown origin) using Carboxyfluorescein-Ahx-GGEEEEYFELVKKKK peptide as substrate incubated for 30 mins in presence of ATP by caliper microfluidic mobility shift assay
T1 sequence (P52333 whole entry): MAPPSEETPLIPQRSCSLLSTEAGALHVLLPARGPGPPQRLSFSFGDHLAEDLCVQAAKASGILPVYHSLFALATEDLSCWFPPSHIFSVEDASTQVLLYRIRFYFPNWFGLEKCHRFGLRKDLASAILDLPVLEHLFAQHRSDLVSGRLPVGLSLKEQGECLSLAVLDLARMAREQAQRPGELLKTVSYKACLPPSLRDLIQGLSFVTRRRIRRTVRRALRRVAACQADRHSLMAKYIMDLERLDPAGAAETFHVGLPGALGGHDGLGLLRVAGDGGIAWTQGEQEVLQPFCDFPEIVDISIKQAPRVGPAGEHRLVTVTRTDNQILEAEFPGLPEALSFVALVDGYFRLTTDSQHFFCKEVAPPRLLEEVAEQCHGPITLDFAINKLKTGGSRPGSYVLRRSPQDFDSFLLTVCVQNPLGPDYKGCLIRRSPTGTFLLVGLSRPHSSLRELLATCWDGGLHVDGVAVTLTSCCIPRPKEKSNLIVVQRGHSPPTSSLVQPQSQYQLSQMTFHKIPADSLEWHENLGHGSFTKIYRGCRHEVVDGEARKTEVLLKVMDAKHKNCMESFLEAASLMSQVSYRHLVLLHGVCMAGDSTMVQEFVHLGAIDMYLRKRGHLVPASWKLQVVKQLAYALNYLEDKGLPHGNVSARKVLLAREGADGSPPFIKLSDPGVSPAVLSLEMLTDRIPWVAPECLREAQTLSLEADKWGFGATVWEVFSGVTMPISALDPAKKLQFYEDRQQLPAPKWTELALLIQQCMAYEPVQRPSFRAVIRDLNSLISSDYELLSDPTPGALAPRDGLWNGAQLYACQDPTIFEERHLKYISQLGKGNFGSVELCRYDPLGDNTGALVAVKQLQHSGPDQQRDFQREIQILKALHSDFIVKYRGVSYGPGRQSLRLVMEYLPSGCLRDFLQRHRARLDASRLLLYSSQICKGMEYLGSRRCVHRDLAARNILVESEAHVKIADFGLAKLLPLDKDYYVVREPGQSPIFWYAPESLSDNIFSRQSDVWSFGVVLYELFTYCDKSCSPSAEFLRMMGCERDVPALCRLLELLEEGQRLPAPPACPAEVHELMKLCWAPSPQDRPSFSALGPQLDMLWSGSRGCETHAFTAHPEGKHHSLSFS

[4] = molecular target: Non-receptor tyrosine-protein kinase TYK2 (Homo sapiens, UniProt P29597); experiment: Inhibition of GST-fused TYK2 (888 to 1187 residues)(unknown origin) using FITC-Ahr-KKSRGDYMTMQIG-NH2 peptide as substrate incubated for 30 mins in presence of ATP by caliper microfluidic mobility shift assay
JAK3/JAK1 [5] = molecular target: T2, JAK3/JAK1 (Homo sapiens, UniProt P23458+P52333); experiment: Inhibition of JAK1/3-mediated STAT5 phosphorylation in human M07E cells preincubated for 30 mins followed by IL-15 stimulation measured after 15 mins by flow cytometry; type: cell-based
JAK2/JAK1 = JAK2/JAK1 (Homo sapiens, UniProt O60674+P23458); experiment: Inhibition of JAK1/2-mediated STAT1 phosphorylation in human M07E cells preincubated for 30 mins followed by IFN-alpha stimulation measured after 15 mins by flow cytometry; type: cell-based
JAK3/JAK1 [6] = molecular target: T2, JAK3/JAK1; experiment: Inhibition of JAK1/3-mediated STAT5 phosphorylation in human whole blood incubated for 30 mins followed by IL-2 addition measured after 15 mins by flow cytometry; type: tissue-based
[7] = Metabolic stability in human skin S9 fraction measured upto 120 mins by LC-MS analysis; type: ADME, subcellular
[8] = Stability in human whole blood assessed as half life at 1 uM incubated upto 8 hrs by LC-MS/MS analysis; type: ADME, tissue-based
[9] = Permeability of compound; type: ADME; conditions: not told; read-out: permeability
[10] = Lipophilicity, LogD of compound; type: physicochemical; conditions: octanol/water
[11] = Thermodynamic solubility of the compound at pH 6.8 using crystalline form of sample; type: physicochemical; conditions: read-out: Therm_solubility
[12] = Saturation solubility of compound in PEG400/transcutol/benzyl alcohol/water mixture using crystalline form of sample; type: physicochemical
[13] = Stability of compound under light stress assessed as compound decomposition under sunlight with intensity of 4000 KJ/m2, irradiation of 250 W/m2, wavelength of >290 nm, temperature of 37 degreeC for 4 hrs using crystalline form of sample; type: ADME; conditions: read-out: Drug degradation
[14] = Stability of compound under temperature stress assessed as compound degradation at 50 degreeC measured after 7 days using crystalline form of sample; type: physicochemical; conditions: time 7 day; read-out: Drug degradation
[15] = Stability of compound in fresh human skin explant using Franz diffusion cell model assessed as compound concentration in dermis at 3 % administered topically preincubated overnight followed by fresh media replacement in receiver fluid without compound and subsequently stimulated with IL-4/IL-13 measured after 40 hrs by LC-MS/MS analysis; type: ADME, tissue-based, Skin of body; conditions: topical or ocular, read-out: Ct
[16] = Drug penetration in fresh human skin explant using Franz diffusion cell model assessed as concentration of 2-(6-((5-carbamoyl-4-((2-methoxyphenyl)amino)pyridin-2-yl)amino)pyridin-3-yl)acetic acid metabolite in receiver fluid at 3 % administered topically preincubated overnight followed by fresh media replacement in receiver fluid without compound and subsequently stimulated with IL-4/IL-13 measured after 24 hrs by LC-MS/MS analysis; type: ADME, tissue-based, Skin of body; conditions: topical_or_ocular
[17] = Solubility of the compound at pH 6.8 using amorphous form of sample; type: physicochemical; conditions: buffer
[18] = Saturation solubility of compound in PEG400/transcutol/benzyl alcohol/water mixture using amorphous form of sample; type: physicochemical
[19] = Stability of compound under temperature stress assessed as compound degradation at 50 degreeC measured after 7 days using amorphous form of sample; type: physicochemical; conditions: time 7 day; read-out: Drug degradation

T2 sequence (P23458 whole entry, one chain of several): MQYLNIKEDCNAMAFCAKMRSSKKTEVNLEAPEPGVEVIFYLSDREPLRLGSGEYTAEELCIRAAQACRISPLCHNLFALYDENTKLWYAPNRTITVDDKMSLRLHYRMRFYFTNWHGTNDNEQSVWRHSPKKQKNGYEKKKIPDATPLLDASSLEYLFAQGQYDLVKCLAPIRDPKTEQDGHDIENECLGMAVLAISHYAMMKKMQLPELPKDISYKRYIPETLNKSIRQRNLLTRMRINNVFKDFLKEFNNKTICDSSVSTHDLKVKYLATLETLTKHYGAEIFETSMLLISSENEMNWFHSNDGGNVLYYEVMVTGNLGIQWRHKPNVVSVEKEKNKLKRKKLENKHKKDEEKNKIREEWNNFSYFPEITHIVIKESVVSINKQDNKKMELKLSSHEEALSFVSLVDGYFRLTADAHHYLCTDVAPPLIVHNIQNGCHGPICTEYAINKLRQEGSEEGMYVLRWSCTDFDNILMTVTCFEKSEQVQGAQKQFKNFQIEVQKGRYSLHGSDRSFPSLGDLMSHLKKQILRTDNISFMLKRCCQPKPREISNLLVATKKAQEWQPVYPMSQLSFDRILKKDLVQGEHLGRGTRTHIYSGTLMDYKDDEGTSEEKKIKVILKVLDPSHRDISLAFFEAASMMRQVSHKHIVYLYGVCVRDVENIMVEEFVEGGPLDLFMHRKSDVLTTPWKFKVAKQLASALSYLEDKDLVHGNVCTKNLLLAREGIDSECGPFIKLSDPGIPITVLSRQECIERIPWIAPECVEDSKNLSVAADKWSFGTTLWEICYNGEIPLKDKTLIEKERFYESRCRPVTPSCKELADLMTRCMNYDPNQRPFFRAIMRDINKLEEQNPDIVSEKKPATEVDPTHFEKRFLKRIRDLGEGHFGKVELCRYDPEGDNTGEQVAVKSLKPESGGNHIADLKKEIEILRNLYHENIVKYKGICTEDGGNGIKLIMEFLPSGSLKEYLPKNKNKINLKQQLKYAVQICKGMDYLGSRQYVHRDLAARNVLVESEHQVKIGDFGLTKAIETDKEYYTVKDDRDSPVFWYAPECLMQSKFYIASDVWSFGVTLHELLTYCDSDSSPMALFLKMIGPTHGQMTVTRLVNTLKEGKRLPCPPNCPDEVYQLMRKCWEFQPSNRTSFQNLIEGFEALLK
Tyrosine-protein kinase JAK2, sequence (O60674 whole entry, the tested form may be a part): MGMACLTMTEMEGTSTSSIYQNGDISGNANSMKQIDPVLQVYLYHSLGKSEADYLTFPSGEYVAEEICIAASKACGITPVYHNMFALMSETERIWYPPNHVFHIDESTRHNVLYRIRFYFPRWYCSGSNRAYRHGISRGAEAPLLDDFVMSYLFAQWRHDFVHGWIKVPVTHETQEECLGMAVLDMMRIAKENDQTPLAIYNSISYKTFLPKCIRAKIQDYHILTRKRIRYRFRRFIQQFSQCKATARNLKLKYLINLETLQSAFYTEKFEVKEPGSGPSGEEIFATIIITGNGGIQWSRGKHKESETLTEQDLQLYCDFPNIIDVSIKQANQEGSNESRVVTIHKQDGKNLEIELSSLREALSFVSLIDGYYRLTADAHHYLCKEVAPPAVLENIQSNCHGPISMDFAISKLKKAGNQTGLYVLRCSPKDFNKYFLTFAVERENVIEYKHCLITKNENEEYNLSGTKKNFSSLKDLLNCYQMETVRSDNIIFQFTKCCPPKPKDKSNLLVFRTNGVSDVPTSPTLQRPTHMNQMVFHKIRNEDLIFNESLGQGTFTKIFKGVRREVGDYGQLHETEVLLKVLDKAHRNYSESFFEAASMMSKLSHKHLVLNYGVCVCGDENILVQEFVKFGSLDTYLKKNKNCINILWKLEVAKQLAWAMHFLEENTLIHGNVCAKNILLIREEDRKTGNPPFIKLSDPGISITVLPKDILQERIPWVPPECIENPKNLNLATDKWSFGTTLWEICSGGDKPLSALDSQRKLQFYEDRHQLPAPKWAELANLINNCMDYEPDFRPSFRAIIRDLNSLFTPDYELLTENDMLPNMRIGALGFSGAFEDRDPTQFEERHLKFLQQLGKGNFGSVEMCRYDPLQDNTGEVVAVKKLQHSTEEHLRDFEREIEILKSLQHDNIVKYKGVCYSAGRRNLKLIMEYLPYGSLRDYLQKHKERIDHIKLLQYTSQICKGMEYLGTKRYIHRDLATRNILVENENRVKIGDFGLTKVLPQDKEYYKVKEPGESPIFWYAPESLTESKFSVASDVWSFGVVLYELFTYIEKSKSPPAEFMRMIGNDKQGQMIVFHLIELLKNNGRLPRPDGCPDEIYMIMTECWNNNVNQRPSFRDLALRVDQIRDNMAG
JAK2/JAK1, sequence (P23458 whole entry): as the sequence (P23458 whole entry, one chain of several) above
JAK2/JAK1, sequence (O60674 whole entry): as the sequence (O60674 whole entry, the tested form may be a part) above
Tyrosine-protein kinase JAK1, sequence (P23458 whole entry, the tested form may be a part): as the sequence (P23458 whole entry, one chain of several) above
Non-receptor tyrosine-protein kinase TYK2, sequence (P29597 whole entry, the tested form may be a part): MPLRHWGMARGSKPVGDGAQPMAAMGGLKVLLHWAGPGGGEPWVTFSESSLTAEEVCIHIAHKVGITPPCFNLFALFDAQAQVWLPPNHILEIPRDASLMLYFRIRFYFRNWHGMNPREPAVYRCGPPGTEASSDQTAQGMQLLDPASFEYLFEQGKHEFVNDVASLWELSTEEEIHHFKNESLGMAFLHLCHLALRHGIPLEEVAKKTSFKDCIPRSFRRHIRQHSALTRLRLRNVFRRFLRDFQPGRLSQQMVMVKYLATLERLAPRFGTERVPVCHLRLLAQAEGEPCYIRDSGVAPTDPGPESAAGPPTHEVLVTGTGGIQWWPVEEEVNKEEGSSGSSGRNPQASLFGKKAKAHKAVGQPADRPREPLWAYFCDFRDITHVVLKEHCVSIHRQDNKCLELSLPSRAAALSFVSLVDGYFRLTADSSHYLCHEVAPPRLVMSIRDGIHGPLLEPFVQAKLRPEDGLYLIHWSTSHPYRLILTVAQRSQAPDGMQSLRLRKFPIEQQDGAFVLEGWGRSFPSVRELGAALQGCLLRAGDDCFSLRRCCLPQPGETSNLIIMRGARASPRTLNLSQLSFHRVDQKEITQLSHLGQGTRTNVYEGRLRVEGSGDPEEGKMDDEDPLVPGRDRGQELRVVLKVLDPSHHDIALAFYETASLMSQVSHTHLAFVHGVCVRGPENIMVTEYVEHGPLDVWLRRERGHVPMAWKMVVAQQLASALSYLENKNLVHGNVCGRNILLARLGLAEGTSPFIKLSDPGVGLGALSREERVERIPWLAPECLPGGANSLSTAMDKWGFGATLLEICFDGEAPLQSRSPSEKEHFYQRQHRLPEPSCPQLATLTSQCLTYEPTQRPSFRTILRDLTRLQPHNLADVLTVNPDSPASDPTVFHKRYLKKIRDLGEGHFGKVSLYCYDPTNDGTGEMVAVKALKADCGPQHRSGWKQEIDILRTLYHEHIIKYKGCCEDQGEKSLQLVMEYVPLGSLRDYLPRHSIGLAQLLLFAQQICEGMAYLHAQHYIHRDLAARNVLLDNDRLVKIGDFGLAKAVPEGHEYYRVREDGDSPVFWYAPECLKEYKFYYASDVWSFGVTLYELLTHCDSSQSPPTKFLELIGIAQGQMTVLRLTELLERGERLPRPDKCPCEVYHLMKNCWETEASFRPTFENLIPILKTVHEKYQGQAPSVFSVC

SMILES | IC50 [1] [nM] | IC50 [2] [nM] | IC50 [3] [nM] | IC50 [4] [nM] | IC50 (JAK3/JAK1 [5]) [nM] | IC50 (JAK2/JAK1) [nM] | IC50 (JAK3/JAK1 [6]) [nM] | half-life [7] [min] | half-life at 1 µM [8] [min] | Papp [9] [×10⁻⁶ cm/s] | logD [10] | solubility thermodynamic [11] [µg/mL] | solubility thermodynamic [12] [µg/mL] | degraded at 4 h [13] [%] | degraded at 168 h [14] [%] | concentration at 40 h, 3 % [15] [µM] | Drug uptake [16] [µM] | solubility [17] [µg/mL] | solubility thermodynamic [18] [µg/mL] | degraded at 168 h [19] [%]
COc1ccccc1Nc1cc(Nc2ccc(CC(=O)O[C@@H]3CCOC3)cn2)ncc1C(N)=O | 3 | 4 | 3 | 2 | 67 | 48 | > 50000 | 8 |  |  |  |  |  |  |  |  |  |  |  | 
NC(=O)c1cnc(Nc2ccc(CC(=O)O)cn2)cc1Nc1ccccc1Cl | 9 | 19 | 10 | 10 | 2580 | 3860 | > 50000 | < 240 | > 240 | 0.9 | 0.4 |  |  |  |  |  |  |  |  | 
CCOC(=O)CCc1ccc(Nc2cc(Nc3ccccc3Cl)c(C(N)=O)cn2)nc1 | 27 | 25 | 25 | 37 | 171 | 185 | 2500 | 8 |  |  |  |  |  |  |  |  |  |  |  | 
COC[C@H](C)OC(=O)Cc1ccc(Nc2cc(Nc3ccccc3OC)c(C(N)=O)cn2)nc1 | 1 | 2 | 1 |  | 115 | 58 | > 50000 | 12 |  |  |  |  |  |  |  |  |  |  |  | 
CC(C)OC(=O)Cc1ccc(Nc2cc(Nc3ccccc3Cl)c(C(N)=O)cn2)nc1 | 29 | 27 | 28 |  | 71 | 115 | 1200 | 67 | 65 |  |  |  |  |  |  |  |  |  |  | 
CCOC(=O)Cc1ccc(Nc2cc(Nc3ccccc3OC)c(C(N)=O)cn2)nc1 | 19 | 26 | 56 | 21 | 80 | 58 | 10200 | 12 | 5 | 28 | 2.9 | 1 (≈ 2.37 µM) | ≥ 9000 | 0 | 2 |  |  |  |  | 
CCOC(=O)c1ccc(Nc2cc(Nc3ccccc3Cl)c(C(N)=O)cn2)nc1 | 120 | 110 | 170 |  | 189 | 288 | 10300 |  |  |  |  |  |  |  |  |  |  |  |  | 
COc1ccccc1Nc1cc(Nc2ccc(CC(=O)O[C@H]3CCOC3)cn2)ncc1C(N)=O | 5 | 5 | 5 | 2 | 89 | 44 | 16000 | 39 | 5 | 20 | 3 | 31 (≈ 66.9 µM) | > 18000 | 3.3 | 2.4 | 54 | 0.124 |  |  | 
CCOC(=O)Cc1ccc(Nc2cc(Nc3ccccc3Cl)c(C(N)=O)cn2)nc1 | 20 | 17 | 18 |  | 24 | 60 | 12200 | 14 | 7 | 11 | 4.6 |  |  |  |  |  |  | 0.1 (≈ 0.235 µM) | 8700 (≈ 20400 µM) | 1
COCCOC(=O)Cc1ccc(Nc2cc(Nc3ccccc3OC)c(C(N)=O)cn2)nc1 | 6 | 6 | 4 | 2 | 63 | 14 | > 30000 | 5 |  |  | 2.9 |  |  |  |  |  |  |  |  | 
CCOC(=O)COc1ccc(Nc2cc(Nc3ccccc3Cl)c(C(N)=O)cn2)nc1 | 69 | 76 | 69 | 54 | 141 | 185 | 7530 | 4 |  |  |  |  |  |  |  |  |  |  |  | 
NC(=O)c1cnc(Nc2cccc(O)n2)cc1Nc1ccccc1Cl |  |  |  |  |  | > 10000 |  | > 200 | > 60 |  |  |  |  |  |  |  |  |  |  | 
